Measurements published in patent publication US8969554B2, “6-acyl-1,2,4-triazine-3,5-dione derivative and herbicides” (Kumiai Chemical Industry Co., Ltd., priority 2010, dated 2015).

Columns and labels:
Type in all cases: in vivo
A. retroflexus [1] = experiment: Herbicidal activity by field foliage treatment (Test example 3); set-up: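 index 0 to 10 in 10% steps of herbicidal effect with 10 meaning complete death and 0 below 10%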; settings: 1000 g effective component per hectare, day 14 after the treatment
Summary of the method: (§1)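 Herbicidal effect is rated on a scoring scale 14 days after treatment. Seedlings raised 2 weeks in field soil under glass receive an overall foliar spray of wettable powder diluted in water, giving 1000 g active component per hectare.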

Indian millet [2] = experiment: as above; set-up: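 index 0 to 10 in 10% steps of herbicidal effect with 10 meaning complete death and 0 below 10%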; settings: 1000 g effective component per hectare, day 14 after the treatment
Summary of the method: as §1

A. retroflexus [3] = experiment: Herbicidal activity by field soil treatment (Test example 2); set-up: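 index 0 to 10 in 10% steps of herbicidal effect with 10 meaning complete death and 0 below 10%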; settings: 1000 g effective component per hectare, day 21 after the treatment
Summary of the method: (§2)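 Herbicidal effect is rated by fixed criteria on day 21 post-treatment. Before that, pots of field soil holding freshly sown, soil-covered seeds receive a surface spray of diluted wettable powder (1000 g per hectare effective component, spray volume 1000 liters per hectare) and are kept in a greenhouse.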

Echinochloa crus-galli [4] = experiment: as above; set-up: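 index 0 to 10 in 10% steps of herbicidal effect with 10 meaning complete death and 0 below 10%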; settings: 1000 g effective component per hectare, day 21 after the treatment
Summary of the method: as §2

Indian millet [5] = experiment: as above; set-up: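 index 0 to 10 in 10% steps of herbicidal effect with 10 meaning complete death and 0 below 10%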; settings: 1000 g effective component per hectare, day 21 after the treatment
Summary of the method: as §2

Setaria viridis = experiment: Herbicidal activity by field foliage treatment (Test example 3); settings: 1000 g effective component per hectare, day 14 after the treatment;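 also: index 0 to 10 in 10% steps of herbicidal effect with 10 meaning complete death and 0 below 10%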
Method: Test example 3 Test for Determining Herbicidal Activity by Field Foliage Treatment A 80 cm^2 wide plastic pot was filled with a field soil and seeds of each of Indian millet and A. retroflexus were sowed and then incubated for 2 weeks in a green house. The wettable powder produced with reference to the Formulation example 1 was diluted water, and applied from the air to entire body of the plant as foliage treatment by using a small sprayer in an amount of 1000 liters per hectare so that the effective component is 1000 g per hectare. After that, the plants were cultivated in a greenhouse, and on day 14 after the treatment, evaluation was made by the criteria described in Table 72 for determining the herbicidal effects.

Echinochloa crus-galli [6] = experiment: as above; set-up: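 index 0 to 10 in 10% steps of herbicidal effect with 10 meaning complete death and 0 below 10%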; settings: 1000 g effective component per hectare, day 14 after the treatment
Summary of the method: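 Potted field-soil plants grown 2 weeks in a greenhouse were sprayed over the whole foliage with diluted wettable powder at 1000 L/ha, delivering 1000 g active ingredient per hectare. Herbicidal effect scored by visual criteria 14 days after treatment.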

Monochoria vaginalis = experiment: Herbicidal activity by paddy field soil treatment (Test Example 1); set-up: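 index 0 to 10 in 10% steps of herbicidal effect with 10 meaning complete death and 0 below 10%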; settings: 1000 g of effective component per hectare, evaluated on day 21 after the treatment, criteria of Table 72
Summary of the method: (§3)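 Herbicidal effect is rated on a graded scale 21 days after treatment. Treatment: wettable powder diluted in water, applied onto the flood water (3 cm deep) of sown paddy-soil pots on the day after sowing, 1000 g active component per hectare, greenhouse cultivation.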

Scirpus juncoides Rocxb. = experiment: as above; set-up: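 index 0 to 10 in 10% steps of herbicidal effect with 10 meaning complete death and 0 below 10%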; settings: applied on water surface, 1000 g of effective component per hectare, day 21 after the treatment
Summary of the method: as §3

Echinochloa oryzicola = experiment: as above; set-up: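 index 0 to 10 in 10% steps of herbicidal effect with 10 meaning complete death and 0 below 10%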; settings: 1000 g of effective component per hectare, evaluated on day 21 after the treatment, criteria of Table 72
Summary of the method: as §3

Row | SMILES | herbicidal effect index, Amaranthus retroflexus (A. retroflexus [1]) | herbicidal effect index, Abutilon theophrasti (Indian millet [2]) | herbicidal effect index, Amaranthus retroflexus (A. retroflexus [3]) | herbicidal effect index, Echinochloa crus-galli (Echinochloa crus-galli [4]) | herbicidal effect index, Abutilon theophrasti (Indian millet [5]) | herbicidal effect index, Setaria viridis (Setaria viridis) | herbicidal effect index, Echinochloa crus-galli (Echinochloa crus-galli [6]) | Herbicidal effects index number, Monochoria vaginalis (Monochoria vaginalis) | herbicidal effect index, S. juncoides Rocxb. (Scirpus juncoides Rocxb.) | Herbicidal effects index number, Echinochloa oryzicola (Echinochloa oryzicola)
1 | COc1c(F)cc(-n2c(=O)c(C(=O)C3=C(O)CCCC3=O)nn(C)c2=O)cc1F [Compound I-167] | 10 | 10 | 10 | 8 | 10 | 8 | 10 |  |  | 
2 | CC(CCn1c(=O)c(C(=O)C2=C(O)CCCC2=O)nn(C)c1=O)=C(F)F [I-27] | 9 | 9 | 10 | 10 | 10 | 6 | 9 | 10 | 10 | 10
3 | CSCn1c(=O)c(C(=O)C2=C(O)CCCC2=O)nn(C)c1=O [I-43] | 10 | 9 | 10 | 10 |  | 8 | 8 | 10 | 10 | 10
4 | COc1ccccc1-n1c(=O)c(C(=O)C2=C(O)CCCC2=O)nn(C)c1=O [I-60] | 10 | 10 | 10 | 10 | 10 | 9 | 10 | 10 | 10 | 10
5 | Cn1nc(C(=O)C2=C(O)CCCC2=O)c(=O)n(-c2ccc(F)cc2F)c1=O [I-78] | 10 | 10 | 10 | 10 | 10 | 10 | 10 | 10 | 10 | 10
6 | Cc1ccc(-n2c(=O)c(C(=O)C3=C(O)CCCC3=O)nn(C)c2=O)c(C)c1 [I-90] | 10 | 9 | 10 | 8 | 10 | 7 | 8 | 10 | 10 | 9
7 | Cc1ccc(Cl)cc1-n1c(=O)c(C(=O)C2=C(O)CCCC2=O)nn(C)c1=O [I-138] | 10 | 9 | 10 | 9 | 9 | 8 | 8 | 10 | 10 | 10
8 | C#Cc1ccc(-n2c(=O)c(C(=O)C3=C(O)CCCC3=O)nn(C)c2=O)nc1 [I-463] | 10 | 9 | 7 |  | 10 | 7 | 7 | 10 | 10 | 10
9 | Cn1nc(C(=O)C2=C(O)CCCC2=O)c(=O)n(-c2cc(Cl)c(Cl)c(Cl)c2)c1=O [I-465] | 10 | 10 | 10 |  | 10 | 10 | 8 | 10 | 10 | 10
10 | Cn1nc(C(=O)C2=C(O)CCCC2=O)c(=O)n(-c2cc(C(F)(F)F)cc(C(F)(F)F)c2)c1=O [I-470] | 10 | 10 | 8 |  | 7 | 9 | 8 | 10 | 10 | 10
11 | Cn1nc(C(=O)O)c(=O)n(-c2cc(Cl)c(Cl)c(Cl)c2)c1=O [V-358] | 10 | 10 | 10 |  | 10 | 10 | 8 | 10 | 10 | 10
12 | Cn1nc(C(=O)O)c(=O)n(-c2cc(C(F)(F)F)cc(C(F)(F)F)c2)c1=O [V-364] | 10 | 10 | 8 |  | 7 | 9 | 8 | 10 | 10 | 10
13 | Cn1nc(C(=O)C2=C(O)C(C)(C)C(=O)C(C)(C)C2=O)c(=O)n(-c2ccccc2)c1=O [VI-1] | 10 | 10 | 10 |  | 10 | 10 | 10 | 10 | 10 | 10
14 | Cn1nc(C(=O)C2=C(O)CC(C)(C)CC2=O)c(=O)n(-c2ccccc2)c1=O [VI-6] | 10 | 10 | 10 |  | 9 | 10 | 8 | 10 | 10 | 10
